The target in the assay is EGFR (human) (UniProt P00533). The settings on record: mcf-7.
Chain of EGFR (human) (P00533 whole entry, looked up): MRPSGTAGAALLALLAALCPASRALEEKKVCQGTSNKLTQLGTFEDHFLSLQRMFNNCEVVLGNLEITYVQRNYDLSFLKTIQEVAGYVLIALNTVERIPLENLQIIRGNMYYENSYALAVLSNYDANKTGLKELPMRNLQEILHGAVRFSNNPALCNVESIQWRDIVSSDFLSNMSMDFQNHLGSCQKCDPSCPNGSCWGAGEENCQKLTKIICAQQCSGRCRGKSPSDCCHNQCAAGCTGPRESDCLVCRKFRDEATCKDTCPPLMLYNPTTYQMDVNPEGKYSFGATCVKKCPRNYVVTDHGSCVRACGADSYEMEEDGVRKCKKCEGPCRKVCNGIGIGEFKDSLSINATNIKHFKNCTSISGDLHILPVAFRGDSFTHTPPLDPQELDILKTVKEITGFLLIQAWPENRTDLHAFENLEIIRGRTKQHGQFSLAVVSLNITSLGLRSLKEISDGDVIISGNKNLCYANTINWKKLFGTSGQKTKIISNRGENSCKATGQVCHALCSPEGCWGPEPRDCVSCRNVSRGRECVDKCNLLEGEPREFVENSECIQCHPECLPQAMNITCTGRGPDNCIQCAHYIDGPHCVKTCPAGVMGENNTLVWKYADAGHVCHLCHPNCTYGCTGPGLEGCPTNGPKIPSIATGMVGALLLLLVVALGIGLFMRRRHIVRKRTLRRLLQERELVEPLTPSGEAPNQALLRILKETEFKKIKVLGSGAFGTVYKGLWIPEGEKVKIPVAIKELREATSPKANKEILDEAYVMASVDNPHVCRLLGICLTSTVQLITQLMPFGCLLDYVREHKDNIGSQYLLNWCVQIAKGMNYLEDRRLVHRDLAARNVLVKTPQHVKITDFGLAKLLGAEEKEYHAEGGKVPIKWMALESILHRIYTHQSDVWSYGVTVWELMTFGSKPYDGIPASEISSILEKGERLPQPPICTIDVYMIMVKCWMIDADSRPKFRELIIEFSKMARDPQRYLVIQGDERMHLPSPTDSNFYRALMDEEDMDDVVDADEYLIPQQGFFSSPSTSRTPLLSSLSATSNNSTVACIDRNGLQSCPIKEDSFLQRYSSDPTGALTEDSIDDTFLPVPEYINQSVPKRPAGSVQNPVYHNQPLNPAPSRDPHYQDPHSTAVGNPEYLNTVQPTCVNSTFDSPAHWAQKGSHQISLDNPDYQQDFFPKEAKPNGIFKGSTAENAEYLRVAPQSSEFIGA

As for `CCOc1ccc2nc(C)cc(Nc3ccc(S(=O)(=O)NC(=N)N)cc3)c2c1`, the concentration for half-maximal inhibition (IC50) was 19.2 nM.
To `CCOc1ccc2nc(C)cc(Nc3cccc(O)c3)c2c1` belongs 2.84 nM; to `CCOc1ccc2nc(C)cc(N3CCN(C(=O)c4ccco4)CC3)c2c1`, 4.31 nM; to `CCOc1ccc2nc(C)cc(Nc3cc(OC)c(OC)cc3C(=O)OC)c2c1`, 1.67 nM.
Then `COc1cc2nc(Cl)nc(Nc3ccc(S(=O)(=O)Nc4nccs4)cc3)c2cc1OC`, with 0.13 nM; and `CCOc1ccc2nc(C)cc(Nc3ccc(S(=O)(=O)Nc4ncccn4)cc3)c2c1`, with 3.96 nM; and `CCOc1ccc2nc(C)cc(Nc3ccc(S(=O)(=O)Nc4cc(C)on4)cc3)c2c1`, with 13.8 nM.
`COc1cc2nc(Cl)nc(Nc3ccc(S(=O)(=O)Nc4cc(C)on4)cc3)c2cc1OC` returned a concentration for half-maximal inhibition (IC50) of 1.98 nM.
To `COc1cc2nc(Cl)nc(N3CCN(S(=O)(=O)c4ccc(C)cc4)CC3)c2cc1OC` belongs 1.08 nM; to `CCOc1ccc2nc(C)cc(Nc3ccc(Cl)cc3Cl)c2c1`, 4.38 nM.

Broadly, the IC50 is the concentration that gives 50% inhibition. High values mean a need for much substance, low ones inhibition by little substance.

The values are drawn from the Kinase Knowledgebase extract (Sharma et al. 2016).
